Assay results: publication PMC10893631, “Receptor-based pharmacophore modeling, molecular docking, synthesis and biological evaluation of novel VEGFR-2, FGFR-1, and BRAF multi-kinase inhibitors” (BMC Chemistry, 2024)

Tests used:
Experiment in all cases: NCI SRB growth inhibition (single dose 10 µM / five-dose)
Format in all cases: cell-based, human
A498 = conditions: Homo sapiens; for inhibition at 10 µM: A498 (Renal cancer), read-out: GI%
Method in brief: (§1)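 Cytotoxicity in the NCI panel of sixty human tumour lines was measured by sulforhodamine B protein staining. Each agent was tested in DMSO-derived dilutions at five concentrations, and TGI was read where treated absorbance equalled time-zero absorbance.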

SR = conditions: Homo sapiens; for inhibition at 10 µM: SR (Leukemia), read-out: GI%
Method in brief: as §1

A549/ATCC = conditions: Homo sapiens; for inhibition at 10 µM: A549/ATCC (Non-small cell lung cancer), read-out: GI%
Method in brief: as §1

SW-620 = conditions: Homo sapiens; for inhibition at 10 µM: SW-620 (Colon cancer), read-out: GI%
Method in brief: as §1

OVCAR-8 = conditions: Homo sapiens; for inhibition at 10 µM: OVCAR-8 (Ovarian cancer), read-out: GI%
Method in brief: as §1

MDA-MB-435 = conditions: Homo sapiens; for inhibition at 10 µM: MDA-MB-435 (Melanoma), read-out: GI%
Method in brief: as §1

ACHN = conditions: Homo sapiens; for inhibition at 10 µM: ACHN (Renal cancer), read-out: GI%
Method in brief: as §1

EKVX = conditions: Homo sapiens; for inhibition at 10 µM: EKVX (Non-small cell lung cancer), read-out: GI%
Method in brief: as §1

HCT-15 = conditions: Homo sapiens; for inhibition at 10 µM: HCT-15 (Colon cancer), read-out: GI%
Method in brief: as §1

HOP-62 = conditions: Homo sapiens
Method in brief: as §1

HS 578 T = conditions: Homo sapiens; for inhibition at 10 µM: HS 578 T (Breast cancer), read-out: GI%
Method in brief: as §1

CAKI-1 = conditions: Homo sapiens; for inhibition at 10 µM: CAKI-1 (Renal cancer), read-out: GI%
Method in brief: as §1

SNB-19 = conditions: Homo sapiens; for inhibition at 10 µM: SNB-19 (CNS cancer), read-out: GI%
Method in brief: as §1

T-47D = conditions: Homo sapiens, T47D
Method in brief: as §1

MALME-3 M = conditions: Homo sapiens; for inhibition at 10 µM: MALME-3 M (Melanoma), read-out: GI%
Method in brief: as §1

HCT-116 = conditions: Homo sapiens, HCT-116; for inhibition at 10 µM: read-out: GI%
Method in brief: as §1

HCC-2998 = conditions: Homo sapiens; for inhibition at 10 µM: HCC-2998 (Colon cancer), read-out: GI%
Method in brief: as §1

MDA-MB-468 = conditions: Homo sapiens; for inhibition at 10 µM: MDA-MB-468 (Breast cancer), read-out: GI%
Method in brief: as §1

NCI-H460 = conditions: Homo sapiens; for inhibition at 10 µM: NCI-H460 (Non-small cell lung cancer), read-out: GI%
Method in brief: as §1

TK-10 = conditions: Homo sapiens; for inhibition at 10 µM: TK-10 (Renal cancer), read-out: GI%
Method in brief: as §1

COLO 205 = conditions: Homo sapiens
Method in brief: as §1

MOLT-4 = conditions: Homo sapiens; for inhibition at 10 µM: MOLT-4 (Leukemia), read-out: GI%
Method in brief: as §1

OVCAR-5 = conditions: Homo sapiens; for inhibition at 10 µM: OVCAR-5 (Ovarian cancer), read-out: GI%
Method in brief: as §1

MCF7 = conditions: Homo sapiens; for inhibition at 10 µM: MCF7 (Breast cancer), read-out: GI%
Method in brief: as §1

COc1cccc(C=NNC(=O)c2ccc3[nH]c(-c4ccccc4)nc3c2)c1O [8d, N'-(2-hydroxy-3-methoxybenzylidene)-2-phenyl-1H-benzo[d]imidazole-5-carbohydrazide]
inhibition at 10 µM (A498): < 5%
GI50 (A498; A498, Renal cancer, five-dose): 36600 nM
inhibition at 10 µM (SR): 77%
GI50 (SR; SR, Leukemia, five-dose): 1800 nM
inhibition at 10 µM (A549/ATCC): 79.8%
GI50 (A549/ATCC; A549/ATCC, Non-small cell lung cancer, five-dose): 3390 nM
inhibition at 10 µM (SW-620): 70.8%
GI50 (SW-620; SW-620, Colon cancer, five-dose): 3770 nM
inhibition at 10 µM (OVCAR-8): > 100%
GI50 (OVCAR-8; OVCAR-8, Ovarian cancer, five-dose): 1620 nM
inhibition at 10 µM (MDA-MB-435): 74.6%
GI50 (MDA-MB-435; MDA-MB-435, Melanoma, five-dose): 4690 nM
inhibition at 10 µM (ACHN): 83.3%
GI50 (ACHN; ACHN, Renal cancer, five-dose): 2280 nM
inhibition at 10 µM (EKVX): 87.6%
GI50 (EKVX; EKVX, Non-small cell lung cancer, five-dose): 1860 nM
inhibition at 10 µM (HCT-15): 71.6%
GI50 (HCT-15; HCT-15, Colon cancer, five-dose): 2070 nM
GI50 (HOP-62; HOP-62, Non-small cell lung cancer, five-dose): 1650 nM
inhibition at 10 µM (HS 578 T): 92.9%
GI50 (HS 578 T; HS 578 T, Breast cancer, five-dose): 620 nM
inhibition at 10 µM (CAKI-1): 91.6%
GI50 (CAKI-1; CAKI-1, Renal cancer, five-dose): 2680 nM
inhibition at 10 µM (SNB-19): 90.4%
GI50 (SNB-19; SNB-19, CNS cancer, five-dose): 2410 nM
GI50 (T-47D; T-47D, Breast cancer, five-dose): 1930 nM
inhibition at 10 µM (MALME-3 M): > 100%
GI50 (MALME-3 M; MALME-3 M, Melanoma, five-dose): 1370 nM
GI50 (HCT-116): 1840 nM
inhibition at 10 µM (HCT-116): 97.4%
inhibition at 10 µM (HCC-2998): 98.5%
GI50 (HCC-2998; HCC-2998, Colon cancer, five-dose): 1790 nM
inhibition at 10 µM (MDA-MB-468): > 100%
GI50 (MDA-MB-468; MDA-MB-468, Breast cancer, five-dose): 890 nM
inhibition at 10 µM (NCI-H460): 86.4%
GI50 (NCI-H460; NCI-H460, Non-small cell lung cancer, five-dose): 2630 nM
inhibition at 10 µM (TK-10): 50.6%
GI50 (TK-10; TK-10, Renal cancer, five-dose): 4780 nM
GI50 (COLO 205; COLO 205, Colon cancer, five-dose): 2340 nM
inhibition at 10 µM (MOLT-4): 65.8%
GI50 (MOLT-4; MOLT-4, Leukemia, five-dose): 2060 nM
inhibition at 10 µM (OVCAR-5): 63.2%
GI50 (OVCAR-5; OVCAR-5, Ovarian cancer, five-dose): 2770 nM
inhibition at 10 µM (MCF7): 98.1%
GI50 (MCF7; MCF7, Breast cancer, five-dose): 1060 nM

COc1ccc(C=NNC(=O)c2ccc3[nH]c(-c4ccccc4)nc3c2)cc1O [8e, N'-(3-Hydroxy-4-methoxybenzylidene)-2-phenyl-1H-benzo[d]imidazole-5-carbohydrazide]
inhibition at 10 µM (A498): < 5%
inhibition at 10 µM (SR): 44.1%
inhibition at 10 µM (A549/ATCC): < 5%
inhibition at 10 µM (SW-620): < 5%
inhibition at 10 µM (OVCAR-8): 25.2%
inhibition at 10 µM (MDA-MB-435): 30.4%
inhibition at 10 µM (ACHN): < 5%
inhibition at 10 µM (EKVX): 19.2%
inhibition at 10 µM (HCT-15): < 5%
inhibition at 10 µM (HOP-62; HOP-62 (Non-small cell lung cancer), 10 µM, read-out: GI%): 21.4%
inhibition at 10 µM (HS 578 T): 6.89%
inhibition at 10 µM (CAKI-1): 17.6%
inhibition at 10 µM (SNB-19): < 5%
inhibition at 10 µM (T-47D; T-47D (Breast cancer), 10 µM, read-out: GI%): 39.3%
inhibition at 10 µM (MALME-3 M): 78.4%
inhibition at 10 µM (HCT-116): 15%
inhibition at 10 µM (HCC-2998): < 5%
inhibition at 10 µM (MDA-MB-468): 7.65%
inhibition at 10 µM (NCI-H460): < 5%
inhibition at 10 µM (TK-10): < 5%
inhibition at 10 µM (COLO 205; COLO 205 (Colon cancer), 10 µM, read-out: GI%): 35.4%
inhibition at 10 µM (MOLT-4): 36.1%
inhibition at 10 µM (OVCAR-5): < 5%
inhibition at 10 µM (MCF7): 70.5%
